Assay in all cases: NCI tumour cell line growth inhibition, 48 h
The subject of assay [1] is SK-MEL-5 melanoma.
The test system of assay [2] is HCT-116 colon.
Assay [3] concerns NCI/ADR-RES ovarian.
Assay [4] concerns SW-620 colon.
Assay [5] concerns SR leukemia.
The subject of assay [6] is OVCAR-5 ovarian.
The test system of assay [7] is OVCAR-8 ovarian.
Assay [8] has as its system NCI-H23 lung.
Assay [9] relates to TK-10 renal.
Assay [10] deals with K-562 leukemia.

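How tested: cells in 96-well plates exposed to compound for 48 hours at five concentrations. GI50 = concentration required for 50% inhibition of growth. TGI: total growth inhibition.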

On to `COc1cc2nc3cc([N+](=O)[O-])ccc3c(NCCCNCC(C)(C)O)c2cc1OC`, for which the GI50 in assay [1] was 0.52 µM; in [2], 0.299 µM; in assay [3] it was 10.5 µM; in assay [4], 0.301 µM; in [5], 0.321 µM; in [6], 0.465 µM. Further, the GI50 is 0.304 µM in assay [7], 0.196 µM in assay [8], 0.5 µM in assay [9] and 0.299 µM in assay [10]. Further, the TGI in assay [1] is 1.76 µM; in assay [2] it was 1.04 µM; in [3] it was 25.3 µM; in [4], 1.51 µM; in [5] it was 3.06 µM; in [6], 3.39 µM. Also, the TGI in [7] was 1.82 µM; in assay [8], 0.543 µM; in assay [9], 2.49 µM; in [10] it was 1.68 µM.

Take `N[C@@H]1CCCN(c2c(/C=C3\SC(=O)NC3=O)cccc2-c2ccccc2)C1`: the GI50 in assay [1] is 11.2 µM; in [2], 13.1 µM; in assay [3], 17.4 µM; in assay [4], 12.8 µM; in assay [5], 4.64 µM; in [6], 10.5 µM. In addition, the GI50 in assay [7] was 14 µM; in assay [8] it was 15.3 µM; in [9], 13.6 µM; in assay [10], 11.7 µM. The TGI in [1] came out at 23.6 µM; in [2], 26.9 µM; in assay [3], 40.4 µM; in [4] it was 28.3 µM; in [5], 26.2 µM; in assay [6] it was 23.4 µM. Also, the TGI was determined as 27.9 µM in assay [7], 33.1 µM in assay [8], 26.8 µM in assay [9] and 54.2 µM in assay [10].

Consider `Cc1cc(C)nc(SC2=C(Nc3cccc(Cl)c3C)C(=O)N(Cc3ccccc3)C2=O)n1`, for which the GI50 in assay [1], in assay [2], in assay [3], in [4], in assay [5] and in assay [6] was more than 160 µM each time. In addition, the GI50 in assay [7], in assay [8], in assay [9] and in assay [10] was more than 160 µM in each case. The TGI in [1], in assay [2], in assay [3], in assay [4], in assay [5] and in assay [6] was more than 160 µM each time. Further, the TGI in assay [7], in assay [8], in [9] and in [10] was more than 160 µM throughout.

Regarding `CCCCn1sc(=O)n(Cc2ccc(CNC(=O)OCc3ccc4c(Br)cc(Br)c(O)c4n3)cc2)c1=O`, the GI50 in [1] is 0.55 µM; in assay [2], 0.344 µM; in assay [3], 0.325 µM; in assay [4], 0.42 µM; in [5] it was 0.404 µM; in assay [6], more than 24.7 µM. Also, the GI50 is 0.415 µM in assay [7], 0.7 µM in assay [8], more than 51.5 µM in [9] and 0.434 µM in assay [10]. Further, the TGI is 2.07 µM in assay [1]; more than 100 µM in [2]; more than 100 µM in assay [3]; more than 100 µM in assay [4]; more than 100 µM in [5]; more than 100 µM in [6]. Moreover, the TGI is more than 81.4 µM in assay [7], more than 100 µM in assay [8], more than 100 µM in [9] and more than 100 µM in [10].

On to `C#CCOc1cccc(Nc2ncnc3ccc(NC(=O)CCl)cc23)c1`, for which the GI50 was 3.37 µM in assay [1]; 0.0493 µM in [2]; 0.817 µM in assay [3]; 0.0614 µM in [4]; 0.0743 µM in assay [5]; 3.04 µM in assay [6]. For the same compound, the GI50 in assay [7] is 0.353 µM; in assay [8], 2.87 µM; in [9], 2.06 µM; in [10], 0.117 µM. In addition, the TGI in assay [1] is 8.9 µM; in assay [2], 5.25 µM; in [3], more than 100 µM; in [4], 5.88 µM; in assay [5], 17.9 µM; in assay [6] it was 19.4 µM. Besides, the TGI was more than 65 µM in [7], 29.9 µM in [8], 18.1 µM in assay [9] and more than 100 µM in assay [10].

In the case of `C=C1C(=O)O[C@H]2[C@H]1CC/C(COC(=O)c1ccc(C#N)cc1)=C\CC[C@@]1(C)O[C@@H]21`, the GI50 in assay [1] was 1.85 µM; in assay [2], 1.42 µM; in [3], 4.25 µM; in assay [4] it was 1.27 µM; in assay [5], 0.548 µM; in assay [6], 3.06 µM. The GI50 in assay [7] is 2.75 µM; in assay [8] it was 2.25 µM; in assay [9] it was 3.99 µM; in [10], 1.94 µM. The TGI in assay [1] was 3.75 µM; in assay [2], 2.77 µM; in assay [3], 18.8 µM; in assay [4], 2.88 µM; in assay [5], more than 100 µM; in assay [6], 9.51 µM. Moreover, the TGI in assay [7] was 11.2 µM; in assay [8], 6 µM; in [9], 10.8 µM; in [10], 13 µM.

Turning to `C=C(C)[C@@H]1CC[C@]2(COC3CCCCO3)CC[C@]3(C)[C@H](CC[C@@H]4[C@@]5(C)C=C(C=O)C(=O)C(C)(C)[C@@H]5CC[C@]43C)[C@@H]12` (stereo not given in full), the GI50 was 1.58 µM in assay [1]; 1.31 µM in assay [2]; 3.16 µM in assay [3]; 1.13 µM in assay [4]; 1.52 µM in assay [5]; 1.79 µM in assay [6]. Besides, the GI50 in [7] is 1.49 µM; in assay [8] it was 1.62 µM; in [9], 1.57 µM; in [10], 1.64 µM. For the same compound, the TGI worked out at 2.93 µM in assay [1]; 2.59 µM in [2]; 26.9 µM in assay [3]; 2.87 µM in assay [4]; 6.78 µM in [5]; 4.21 µM in assay [6]. The TGI in assay [7] was determined as 3.86 µM; in [8], 3.63 µM; in [9] it was 2.96 µM; in assay [10], 5.98 µM.

The values above are taken from PubChem BioAssay (NCI).
